# In paper PMC7901646, “Pyrrolo[2′,3′:3,4]cyclohepta[1,2-d][1,2]oxazoles, a New Class of Antimitotic Agents Active against Multiple Malignant Cell Types” (Journal of Medicinal Chemistry, 2020):
# Experiments:
# Format in all cases: cell-based
# UACC-257 = experiment: NCI-60 screen; conditions: Homo sapiens, Melanoma
# Method in brief: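 Each compound is applied at one concentration, 10^–5 M, to the nine-tissue NCI-60 human cancer cell line panel, and growth-inhibitory activity is recorded per line.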
# phosphorylated cdc2 = experiment: Western blot, G2/M checkpoint proteins; conditions: HeLa, after both 24 and 48 h
# Description: (§1) Figure 6 Effects of 66 on G2/M checkpoint proteins. HeLa cells were treated with 0.1 or 0.5 μM compound 66 for 24 or 48 h. The cells were harvested and lysed for the detection of cdc25c, p-cdc2^Y15, and cyclin B expression by Western blot analysis. To confirm equal protein loading, each membrane was stripped and reprobed with anti-GAPDH antibody. The relative expression of proteins was analyzed by scanning densitometry using ImageJ software and reported as a ratio protein/GAPDH.
# (§2) HeLa cells were incubated in the presence of the test compound and, after different times, were collected, centrifuged, and washed two times with ice cold PBS. The pellet was resuspended in lysis buffer. After the cells were lysed on ice for 30 min, lysates were centrifuged at 15 000g at 4 °C for 10 min. The protein concentration in the supernatant was determined using the BCA protein assay reagents (Pierce, Italy). Equal amounts of protein (10 μg) were resolved using sodium dodecyl sulfate–polyacrylamide gel electrophoresis (Criterion Precast, BioRad, Italy) and transferred to a PVDF Hybond-P membrane (GE Healthcare). Membranes were blocked with a bovine serum albumin solution (5% in Tween PBS 1×), and the membranes were gently rotated overnight at 4 °C in the albumin solution. Membranes were then incubated with primary antibodies against PARP cleaved fragment, cdc25c, cyclin B, p-cdc2^Tyr15, XIAP, and Mcl-1 (all from Cell Signaling) or GAPDH (Sigma-Aldrich) for 2 h at room temperature. Membranes were next incubated with peroxidase labeled secondary antibodies for 1 h. All membranes were visualized using ECL Select (GE Healthcare), and images were acquired using an Uvitec-Alliance imaging system (Uvitec, Cambridge, U.K.). To ensure equal protein loading, each membrane was stripped and reprobed with anti-GAPDH antibody. To obtain relative quantitative data, ImageJ software (NIH, USA) was used for scanning densitometry analysis of Western blots.
# cdc25c = experiment: Western blot, G2/M checkpoint proteins; conditions: HeLa, 0.5 μM
# Description: as §1, §2
# cyclin B1 = experiment: Western blot, G2/M checkpoint proteins; conditions: HeLa, 24 h, 0.5 μM
# Description: as §1, §2
# HeLa cells [1] = experiment: Mitochondrial membrane potential (JC-1); conditions: 0.1 and 0.5 μM, 24 or 48 h
# Description: The mitochondrial membrane potential was measured with the lipophilic cationic dye 5,5′,6,6′ tetrachlo-1,1′,3,3′-tetraethylbenzimidazolcarbocyanine (JC-1) (Molecular Probes), as described.[73] The method is based on the ability of this fluorescent probe to enter selectively into mitochondria since it changes reversibly its color from green to red as membrane potential increases. This property is due to the reversible formation of JC-1 aggregates upon membrane polarization that causes a shift in the emitted light from 530 nm (i.e., emission of JC-1 monomeric form) to 590 nm (emission of JC-1-aggregate) when excited at 490 nm.
# HeLa cells [2] = experiment: Annexin-V/PI apoptosis assay
# Description: To analyze the mode of cell death induced by compound 66 in HeLa cells, we utilized a double labeling assay of the cells with annexin-V and PI. This procedure, through a flow cytometric analysis, distinguishes four different cell populations: live cells (annexin-V^–/PI^–), early apoptotic cells (annexin-V^+/PI^–), late apoptotic cells (annexin-V^+/PI^+), and necrotic cells (annexin-V^–/PI^+).
# Cell death was determined by flow cytometry of cells double stained with annexin V/FITC and PI. The Coulter Cytomics FC500 (Beckman Coulter) was used to measure the surface exposure of phosphatidylserine on apoptotic cells according to the manufacturer’s instructions (Annexin-V Fluos, Roche Diagnostics).
# HeLa cells [3] = experiment: ROS production (H2-DCFDA); conditions: 48 h, 0.5 μM
# Description: One consequence of mitochondrial depolarization caused by the release of cytochrome c into the cytoplasm is the increase in reactive oxygen species (ROS).[65] Therefore, we wanted to evaluate whether ROS production increased following treatment with compound 66. To do this, we used the fluorescent probe 2,7-dichlorodihydrofluorescein diacetate (H2-DCFDA), which is oxidized to the fluorescent compound dichlorofluorescein (DCF) upon ROS production.
# The production of ROS was measured by flow cytometry using H2DCFDA (Molecular Probes), as previously described.[59] Briefly, after different times of treatment, cells were collected by centrifugation and resuspended in PBS containing H2DCFDA at the concentration of 0.1 μM. The cells were then incubated for 30 min at 37 °C, centrifuged, and resuspended in PBS. The fluorescence was directly recorded with the flow cytometer, using as excitation wavelength 488 nm and emission at 530 nm.
# Mcl-1 = experiment: Western blot, apoptosis proteins; conditions: HeLa, 0.1 or 0.5 μM, 24 or 48 h
# Description: (§3) To study in greater detail the apoptotic process induced by 66, we evaluated the expression of the cleaved fragment of poly(ADP)ribose polymerase (PARP), a common marker of apoptosis,[66] by Western blot analysis. HeLa cells were treated with compound 66 at 0.1 or 0.5 μM for 24 or 48 h. The cleavage fragment of PARP appeared at 24 h after beginning treatment with only 0.1 μM 66. The expression of two antiapoptotic proteins, Mcl-1 and XIAP, was also studied. Mcl-1, a member of the Bcl-2 family, is highly expressed in many types of tumors and takes part in the apoptotic response to multiple stimuli. […] Similarly, expression of Xiap, a member of the family of inhibitors of apoptosis proteins, was reduced (at 24 h) and diappeared (at 48 h) after HeLa cell treatment with 66 (Figure 9). The functions of this protein are to inhibit the activity of caspase-3, caspase-7, and caspase-9 through a direct interaction with these enzymes. Following this interaction, the entire apoptotic process is inhibited.[69]
# as §2
# PARP = experiment: Western blot, apoptosis proteins; conditions: HeLa, 24 h, 0.1 μM
# Description: as §3, §2
# XIAP = experiment: Western blot, apoptosis proteins; conditions: HeLa
# Description: as §3, §2
Structure (SMILES),GI50 (UACC-257),expression of phosphorylated cdc2 (phosphorylated cdc2),total cdc25c expression (cdc25c),cyclin B1 expression (cyclin B1),percentage of cells with low Δψmt (HeLa cells [1]),"apoptotic cells (HeLa cells [2]; 24 h, 0.5 μM)",necrotic cells (HeLa cells [2]; 48 h),ROS production (HeLa cells [3]),Mcl-1 levels (Mcl-1),cleavage fragment of PARP (PARP),expression of Xiap (XIAP; 24 h),expression of Xiap (XIAP; 48 h)
"CCOC(=O)c1cc2c(n1Cc1cccc(OC)c1)-c1oncc1CCC2 [Compound 63, Ethyl 9-(3-Methoxybenzyl)-4,5,6,9-tetrahydropyrrolo[2′,3′:3,4]cyclohepta[1,2-d][1,2]oxazole-8-carboxylate]",7.61 µM,–,–,–,–,–,–,–,–,–,–,–
"CCOC(=O)c1cc2c(n1Cc1cc(OC)cc(OC)c1)-c1oncc1CCC2 [Compound 66, Ethyl 9-(3,5-Dimethoxybenzyl)-4,5,6,9-tetrahydropyrrolo[2′,3′:3,4]cyclohepta[1,2-d][1,2]oxazole-8-carboxylate]",–,strongly decreased,strongly reduced,substantial increase,significant increase,significant increase,substantial increase,induced the production of ROS,reduction,appeared,reduced,diappeared
